Values belong to the compound of their own block, whether it stands above or below them.
What was measured:
[1] = target: T1, 14 kD lectins (HL-60 cells, placenta, recombinant E. coli) (Homo sapiens, UniProt P09382); experiment: Inhibition by competing sugars of lectin-induced agglutination of trypsinized rabbit erythrocytes; format: biochemical; settings: FIG. 5
T1 construct: the N-terminal methionine of the HL-60 lectin appears to be cleaved, and the remaining protein can be acetylated; secretion signal (only the E. coli-made preparation); made in house; host or cells: three preparations tested side by side: purified from HL-60 cells, purified from human placenta tissue, recombinant from E. coli (secretion signal)
Excerpt: (§1) Biological activity of the inventive 14 kD lectins 1) isolated from HL-60 cells, 2) isolated from placenta tissue or 3) prepared recombinantly from E. coli cells transfected with lectin cDNA operably linked to a secretion signal was ascertained by agglutination of trypsinized rabbit erythrocytes.

[2] = tested on: trypsinized rabbit erythrocytes; experiment: Agglutination of trypsinized rabbit erythrocytes; format: cell-based; settings: control, FIG. 5
Excerpt: as §1

[3] = target: epitope recognized by M3 antibody on human blood cells (macrophages) (human); experiment: flow cytometry of human blood cells pretreated with lectin, then stained with fluoresceinated M3 antibody, against untreated control
[4] = target: epitope recognized by M1 antibody on human blood cells (macrophages) (human); experiment: flow cytometry of human blood cells pretreated with lectin, then stained with fluoresceinated M1 antibody, against untreated control

T1 sequence (P09382 2-135 limits assumed): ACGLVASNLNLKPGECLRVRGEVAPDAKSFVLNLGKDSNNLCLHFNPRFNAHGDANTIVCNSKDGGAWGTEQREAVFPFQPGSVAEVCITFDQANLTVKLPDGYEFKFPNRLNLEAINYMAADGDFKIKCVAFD

- concentrations inhibiting agglutination of the erythrocytes [1]: greater than 0.31 mM
Compound: OC[C@H]1O[C@@H](S[C@@H]2O[C@H](CO)[C@H](O)[C@H](O)[C@H]2O)[C@H](O)[C@@H](O)[C@H]1O [Thiodigalactoside, thiodigalactoside]

Compound: Concanavalin A
- agglutination end-point [2]: 1.5 µg/mL

- concentrations inhibiting agglutination of the erythrocytes [1]: greater than 1.25 mM
Compound: OC[C@H]1O[C@@H](O[C@H]2[C@H](O)[C@@H](O)[C@H](O)O[C@@H]2CO)[C@H](O)[C@@H](O)[C@H]1O [β-lactose]

- reduction of the percent of positive cells [3]: 26%
- reduction of the percent of positive cells [4]: 33%
Compound: recombinant 14 kD beta-galactoside-binding soluble lectin (HL-60 / placenta lectin) produced in E. coli (from UniProt P09382 2-135)
